Experimental data: PubChem BioAssay (NCI)
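How tested: cells in 96-well plates exposed to compound for 48 hours at five concentrations. TGI denotes the concentration required for complete inhibition of growth.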

System: SR leukemia
Assay: NCI-60 cell line screen, 48 h

| Compound | TGI |
| --- | --- |
| C1=CC2C=CC(C=C1)P2c1ccccc1 (stereo not given) | > 100 µM |
| C[n+]1c2ccccc2c(NCC(=O)O)c2ccccc21 | > 100 µM |
| Cc1cc(=O)[nH]c2cc3oc4ccccc4c3cc12 | > 44.3 µM |

System: SK-MEL-5 melanoma
Assay: NCI-60 cell line screen, 48 h

| Compound | TGI |
| --- | --- |
| O=C(/C=C/c1ccccc1Cl)c1ccc(Cl)c(Cl)c1 | 36.1 µM |
| S=C1NCCN1 | > 100 µM |
| COc1cc2cnc3c4cc(OC(C)C)c(OC)cc4ccc3c2cc1OC | > 100 µM |
| CC1CN1P1(N2CC2C)=NP(N2CC2C)(N2CC2C)=NP(N2CC2C)(N2CC2C)=N1 (stereo not given) | > 50 µM |
| C1=CC2C=CC(C=C1)P2c1ccccc1 (stereo not given) | > 100 µM |
| C[n+]1c2ccccc2c(NCC(=O)O)c2ccccc21 | > 100 µM |
| Cc1cc(=O)[nH]c2cc3oc4ccccc4c3cc12 | > 100 µM |

System: HOP-92 NSCLC
Assay: NCI-60 cell line screen, 48 h

| Compound | TGI |
| --- | --- |
| O=C(/C=C/c1ccccc1Cl)c1ccc(Cl)c(Cl)c1 | 58.1 µM |
| S=C1NCCN1 | > 100 µM |
| CC1CN1P1(N2CC2C)=NP(N2CC2C)(N2CC2C)=NP(N2CC2C)(N2CC2C)=N1 (stereo not given) | > 50 µM |
| C1=CC2C=CC(C=C1)P2c1ccccc1 (stereo not given) | > 100 µM |
| Cc1cc(=O)[nH]c2cc3oc4ccccc4c3cc12 | > 100 µM |

System: MCF7 breast
Assay: NCI-60 cell line screen, 48 h

| Compound | TGI |
| --- | --- |
| C1=CC2C=CC(C=C1)P2c1ccccc1 (stereo not given) | > 100 µM |
| Cc1cc(=O)[nH]c2cc3oc4ccccc4c3cc12 | > 100 µM |

System: M14 melanoma
Assay: NCI-60 cell line screen, 48 h

| Compound | TGI |
| --- | --- |
| O=C(/C=C/c1ccccc1Cl)c1ccc(Cl)c(Cl)c1 | 33.4 µM |
| S=C1NCCN1 | > 100 µM |
| COc1cc2cnc3c4cc(OC(C)C)c(OC)cc4ccc3c2cc1OC | > 100 µM |
| CC1CN1P1(N2CC2C)=NP(N2CC2C)(N2CC2C)=NP(N2CC2C)(N2CC2C)=N1 (stereo not given) | > 50 µM |
| C1=CC2C=CC(C=C1)P2c1ccccc1 (stereo not given) | > 100 µM |
| C[n+]1c2ccccc2c(NCC(=O)O)c2ccccc21 | > 100 µM |
| Cc1cc(=O)[nH]c2cc3oc4ccccc4c3cc12 | > 100 µM |

System: IGROV1 ovarian
Assay: NCI-60 cell line screen, 48 h

| Compound | TGI |
| --- | --- |
| O=C(/C=C/c1ccccc1Cl)c1ccc(Cl)c(Cl)c1 | 25 µM |
| S=C1NCCN1 | > 100 µM |
| COc1cc2cnc3c4cc(OC(C)C)c(OC)cc4ccc3c2cc1OC | > 100 µM |
| CC1CN1P1(N2CC2C)=NP(N2CC2C)(N2CC2C)=NP(N2CC2C)(N2CC2C)=N1 (stereo not given) | > 50 µM |
| C1=CC2C=CC(C=C1)P2c1ccccc1 (stereo not given) | > 100 µM |
| C[n+]1c2ccccc2c(NCC(=O)O)c2ccccc21 | > 100 µM |
| Cc1cc(=O)[nH]c2cc3oc4ccccc4c3cc12 | > 100 µM |

System: ACHN renal
Assay: NCI-60 cell line screen, 48 h

| Compound | TGI |
| --- | --- |
| O=C(/C=C/c1ccccc1Cl)c1ccc(Cl)c(Cl)c1 | 28.6 µM |
| S=C1NCCN1 | > 100 µM |
| COc1cc2cnc3c4cc(OC(C)C)c(OC)cc4ccc3c2cc1OC | > 100 µM |
| CC1CN1P1(N2CC2C)=NP(N2CC2C)(N2CC2C)=NP(N2CC2C)(N2CC2C)=N1 (stereo not given) | > 50 µM |
| C1=CC2C=CC(C=C1)P2c1ccccc1 (stereo not given) | > 100 µM |
| C[n+]1c2ccccc2c(NCC(=O)O)c2ccccc21 | > 100 µM |
| Cc1cc(=O)[nH]c2cc3oc4ccccc4c3cc12 | > 100 µM |

System: A549 NSCLC
Assay: NCI-60 cell line screen, 48 h

| Compound | TGI |
| --- | --- |
| O=C(/C=C/c1ccccc1Cl)c1ccc(Cl)c(Cl)c1 | 40.8 µM |
| S=C1NCCN1 | > 100 µM |
| COc1cc2cnc3c4cc(OC(C)C)c(OC)cc4ccc3c2cc1OC | > 100 µM |
| CC1CN1P1(N2CC2C)=NP(N2CC2C)(N2CC2C)=NP(N2CC2C)(N2CC2C)=N1 (stereo not given) | > 50 µM |
| C1=CC2C=CC(C=C1)P2c1ccccc1 (stereo not given) | > 100 µM |
| C[n+]1c2ccccc2c(NCC(=O)O)c2ccccc21 | > 100 µM |
| Cc1cc(=O)[nH]c2cc3oc4ccccc4c3cc12 | > 100 µM |

System: SK-MEL-2 melanoma
Assay: NCI-60 cell line screen, 48 h

| Compound | TGI |
| --- | --- |
| O=C(/C=C/c1ccccc1Cl)c1ccc(Cl)c(Cl)c1 | 36.9 µM |
| S=C1NCCN1 | > 100 µM |
| COc1cc2cnc3c4cc(OC(C)C)c(OC)cc4ccc3c2cc1OC | > 100 µM |
| C1=CC2C=CC(C=C1)P2c1ccccc1 (stereo not given) | > 100 µM |
| C[n+]1c2ccccc2c(NCC(=O)O)c2ccccc21 | > 100 µM |
| Cc1cc(=O)[nH]c2cc3oc4ccccc4c3cc12 | > 100 µM |

System: HCT-116 colon
Assay: NCI-60 cell line screen, 48 h

| Compound | TGI |
| --- | --- |
| O=C(/C=C/c1ccccc1Cl)c1ccc(Cl)c(Cl)c1 | 23.6 µM |
| S=C1NCCN1 | > 100 µM |
| COc1cc2cnc3c4cc(OC(C)C)c(OC)cc4ccc3c2cc1OC | > 100 µM |
| CC1CN1P1(N2CC2C)=NP(N2CC2C)(N2CC2C)=NP(N2CC2C)(N2CC2C)=N1 (stereo not given) | > 50 µM |
| C1=CC2C=CC(C=C1)P2c1ccccc1 (stereo not given) | > 100 µM |
| C[n+]1c2ccccc2c(NCC(=O)O)c2ccccc21 | > 100 µM |
| Cc1cc(=O)[nH]c2cc3oc4ccccc4c3cc12 | > 100 µM |

System: NCI-H23 lung
Assay: NCI-60 cell line screen, 48 h

| Compound | TGI |
| --- | --- |
| O=C(/C=C/c1ccccc1Cl)c1ccc(Cl)c(Cl)c1 | 36.4 µM |
| S=C1NCCN1 | > 100 µM |
| COc1cc2cnc3c4cc(OC(C)C)c(OC)cc4ccc3c2cc1OC | > 100 µM |
| CC1CN1P1(N2CC2C)=NP(N2CC2C)(N2CC2C)=NP(N2CC2C)(N2CC2C)=N1 (stereo not given) | > 50 µM |
| C1=CC2C=CC(C=C1)P2c1ccccc1 (stereo not given) | > 100 µM |
| C[n+]1c2ccccc2c(NCC(=O)O)c2ccccc21 | > 100 µM |
| Cc1cc(=O)[nH]c2cc3oc4ccccc4c3cc12 | > 100 µM |

System: RXF 393 renal
Assay: NCI-60 cell line screen, 48 h

| Compound | TGI |
| --- | --- |
| O=C(/C=C/c1ccccc1Cl)c1ccc(Cl)c(Cl)c1 | 26 µM |
| CC1CN1P1(N2CC2C)=NP(N2CC2C)(N2CC2C)=NP(N2CC2C)(N2CC2C)=N1 (stereo not given) | > 50 µM |
| C1=CC2C=CC(C=C1)P2c1ccccc1 (stereo not given) | > 100 µM |
| C[n+]1c2ccccc2c(NCC(=O)O)c2ccccc21 | > 100 µM |
| Cc1cc(=O)[nH]c2cc3oc4ccccc4c3cc12 | > 100 µM |

System: SNB-78 CNS
Assay: NCI-60 cell line screen, 48 h

| Compound | TGI |
| --- | --- |
| O=C(/C=C/c1ccccc1Cl)c1ccc(Cl)c(Cl)c1 | 32.7 µM |
| S=C1NCCN1 | > 100 µM |
| C[n+]1c2ccccc2c(NCC(=O)O)c2ccccc21 | > 100 µM |

System: SF-268 CNS
Assay: NCI-60 cell line screen, 48 h

| Compound | TGI |
| --- | --- |
| O=C(/C=C/c1ccccc1Cl)c1ccc(Cl)c(Cl)c1 | 33.7 µM |
| S=C1NCCN1 | > 100 µM |
| COc1cc2cnc3c4cc(OC(C)C)c(OC)cc4ccc3c2cc1OC | > 100 µM |
| CC1CN1P1(N2CC2C)=NP(N2CC2C)(N2CC2C)=NP(N2CC2C)(N2CC2C)=N1 (stereo not given) | > 50 µM |
| C1=CC2C=CC(C=C1)P2c1ccccc1 (stereo not given) | > 100 µM |
| C[n+]1c2ccccc2c(NCC(=O)O)c2ccccc21 | > 100 µM |
| Cc1cc(=O)[nH]c2cc3oc4ccccc4c3cc12 | > 93.7 µM |

System: SK-OV-3 ovarian
Assay: NCI-60 cell line screen, 48 h

| Compound | TGI |
| --- | --- |
| O=C(/C=C/c1ccccc1Cl)c1ccc(Cl)c(Cl)c1 | 51.3 µM |
| S=C1NCCN1 | > 100 µM |
| COc1cc2cnc3c4cc(OC(C)C)c(OC)cc4ccc3c2cc1OC | > 100 µM |
| CC1CN1P1(N2CC2C)=NP(N2CC2C)(N2CC2C)=NP(N2CC2C)(N2CC2C)=N1 (stereo not given) | > 50 µM |
| C1=CC2C=CC(C=C1)P2c1ccccc1 (stereo not given) | > 100 µM |
| C[n+]1c2ccccc2c(NCC(=O)O)c2ccccc21 | > 100 µM |
| Cc1cc(=O)[nH]c2cc3oc4ccccc4c3cc12 | > 100 µM |

System: 786-0 renal
Assay: NCI-60 cell line screen, 48 h

| Compound | TGI |
| --- | --- |
| O=C(/C=C/c1ccccc1Cl)c1ccc(Cl)c(Cl)c1 | 29.8 µM |
| S=C1NCCN1 | > 100 µM |
| COc1cc2cnc3c4cc(OC(C)C)c(OC)cc4ccc3c2cc1OC | > 100 µM |
| CC1CN1P1(N2CC2C)=NP(N2CC2C)(N2CC2C)=NP(N2CC2C)(N2CC2C)=N1 (stereo not given) | > 50 µM |
| C1=CC2C=CC(C=C1)P2c1ccccc1 (stereo not given) | > 100 µM |
| C[n+]1c2ccccc2c(NCC(=O)O)c2ccccc21 | > 100 µM |
| Cc1cc(=O)[nH]c2cc3oc4ccccc4c3cc12 | > 81.8 µM |

System: M19-MEL melanoma
Assay: NCI-60 cell line screen, 48 h

| Compound | TGI |
| --- | --- |
| O=C(/C=C/c1ccccc1Cl)c1ccc(Cl)c(Cl)c1 | 29.8 µM |
